# Data: patent US12371428B2 (Exelixis, Inc., priority 2019, dated 2025)
# Tests used:
# Type in all cases: cell-based
# [1] = target: Mer (phospho-Mer, MERTK-transfected 293A cells) (Homo sapiens (Human), UniProt Q12866); assay: Mer autophosphorylation ELISA in transient transfected 293A cells (Example H); settings: cellular activity; Mer autophosphorylation ELISA in transient transfected 293A cells
# Procedure, shortened: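 MERTK-transfected 293A; 8-pt dose, 1 h, serum-free, 0.3% DMSO. Cold lysis with orthovanadate and protease/phosphatase inhibitors. Phospho-Mer by DuoSet IC ELISA vs phospho-Mer standard. IC50: 4-PL fit; DMSO = 100%, reference inhibitor = 0%.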
# [2] = target: Met (phospho-Met, HGF-stimulated PC-3 prostate cancer cells) (Homo sapiens (Human), UniProt P08581); assay: Met autophosphorylation ELISA in PC-3 cells (Example F); settings: cellular activity; Met autophosphorylation ELISA in PC-3 cells; read-out: c-Met IC50
# Procedure, shortened: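 PC-3 cells, serum-starved 3 h, were treated with compounds (8-point dose curve, 0.3% DMSO final) for 1 h, then stimulated with 100 ng/mL recombinant human HGF for 10 min. Lysate phospho-Met (panTyr) was quantified by sandwich ELISA; IC50 from 4-parameter logistic fit.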
# [3] = target: KDR (phospho-KDR, VEGF165-stimulated HUVEC cells) (Homo sapiens (Human), UniProt P35968); assay: KDR autophosphorylation ELISA in HUVEC cells (Example G); settings: cellular activity; KDR autophosphorylation ELISA in HUVEC cells
# Procedure, shortened: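 Read-out: phospho-KDR in cell lysates by DuoSet IC ELISA, normalised between VEGF-stimulated DMSO wells (100%) and unstimulated wells (0%). Human endothelial cells were starved overnight in serum-free medium, exposed to compound for 1 h, and then pulsed with 100 ng/mL VEGF165 for 5 min.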
# [4] = target: AXL (phospho-AXL, Gas6-stimulated A-172 glioblastoma cells) (Homo sapiens (Human), UniProt P30530); assay: AXL autophosphorylation ELISA in A-172 cells (Example E); settings: cellular activity; AXL autophosphorylation ELISA in A-172 cells; read-out: Axl IC50
# Procedure, shortened: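 Phospho-AXL was measured by ELISA in lysates of Gas6-stimulated A-172 cells, starved 24 h in serum-free medium and exposed 1 h to an 8-point compound dilution at 0.3% DMSO.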
# Mer (phospho-Mer, MERTK-transfected 293A cells), sequence (Q12866 21-999): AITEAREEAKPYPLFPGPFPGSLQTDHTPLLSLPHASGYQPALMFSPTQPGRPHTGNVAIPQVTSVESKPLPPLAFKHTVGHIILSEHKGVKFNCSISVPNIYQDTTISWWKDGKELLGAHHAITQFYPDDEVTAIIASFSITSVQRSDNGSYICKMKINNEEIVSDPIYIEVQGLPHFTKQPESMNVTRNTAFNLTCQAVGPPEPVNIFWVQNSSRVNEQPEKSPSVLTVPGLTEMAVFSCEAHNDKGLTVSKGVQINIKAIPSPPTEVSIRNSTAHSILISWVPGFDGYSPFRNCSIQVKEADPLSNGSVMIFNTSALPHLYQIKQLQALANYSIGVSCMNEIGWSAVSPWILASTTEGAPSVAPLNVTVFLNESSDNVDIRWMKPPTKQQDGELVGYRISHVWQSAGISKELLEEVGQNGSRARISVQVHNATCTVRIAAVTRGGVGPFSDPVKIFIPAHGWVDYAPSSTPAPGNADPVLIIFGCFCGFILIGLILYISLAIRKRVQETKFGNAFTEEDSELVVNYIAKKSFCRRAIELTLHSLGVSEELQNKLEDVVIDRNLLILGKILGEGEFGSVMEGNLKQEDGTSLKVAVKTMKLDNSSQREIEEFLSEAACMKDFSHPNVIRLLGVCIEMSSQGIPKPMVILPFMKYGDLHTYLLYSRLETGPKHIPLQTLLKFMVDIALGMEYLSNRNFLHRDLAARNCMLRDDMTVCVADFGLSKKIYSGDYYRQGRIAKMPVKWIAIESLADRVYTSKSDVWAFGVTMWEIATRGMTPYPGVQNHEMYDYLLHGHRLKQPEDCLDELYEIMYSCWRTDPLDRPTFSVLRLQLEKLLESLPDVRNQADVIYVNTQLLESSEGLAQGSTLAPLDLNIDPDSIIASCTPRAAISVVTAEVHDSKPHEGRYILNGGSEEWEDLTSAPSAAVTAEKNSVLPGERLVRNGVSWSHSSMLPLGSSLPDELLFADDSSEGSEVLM
# KDR (phospho-KDR, VEGF165-stimulated HUVEC cells), sequence (P35968 20-1356): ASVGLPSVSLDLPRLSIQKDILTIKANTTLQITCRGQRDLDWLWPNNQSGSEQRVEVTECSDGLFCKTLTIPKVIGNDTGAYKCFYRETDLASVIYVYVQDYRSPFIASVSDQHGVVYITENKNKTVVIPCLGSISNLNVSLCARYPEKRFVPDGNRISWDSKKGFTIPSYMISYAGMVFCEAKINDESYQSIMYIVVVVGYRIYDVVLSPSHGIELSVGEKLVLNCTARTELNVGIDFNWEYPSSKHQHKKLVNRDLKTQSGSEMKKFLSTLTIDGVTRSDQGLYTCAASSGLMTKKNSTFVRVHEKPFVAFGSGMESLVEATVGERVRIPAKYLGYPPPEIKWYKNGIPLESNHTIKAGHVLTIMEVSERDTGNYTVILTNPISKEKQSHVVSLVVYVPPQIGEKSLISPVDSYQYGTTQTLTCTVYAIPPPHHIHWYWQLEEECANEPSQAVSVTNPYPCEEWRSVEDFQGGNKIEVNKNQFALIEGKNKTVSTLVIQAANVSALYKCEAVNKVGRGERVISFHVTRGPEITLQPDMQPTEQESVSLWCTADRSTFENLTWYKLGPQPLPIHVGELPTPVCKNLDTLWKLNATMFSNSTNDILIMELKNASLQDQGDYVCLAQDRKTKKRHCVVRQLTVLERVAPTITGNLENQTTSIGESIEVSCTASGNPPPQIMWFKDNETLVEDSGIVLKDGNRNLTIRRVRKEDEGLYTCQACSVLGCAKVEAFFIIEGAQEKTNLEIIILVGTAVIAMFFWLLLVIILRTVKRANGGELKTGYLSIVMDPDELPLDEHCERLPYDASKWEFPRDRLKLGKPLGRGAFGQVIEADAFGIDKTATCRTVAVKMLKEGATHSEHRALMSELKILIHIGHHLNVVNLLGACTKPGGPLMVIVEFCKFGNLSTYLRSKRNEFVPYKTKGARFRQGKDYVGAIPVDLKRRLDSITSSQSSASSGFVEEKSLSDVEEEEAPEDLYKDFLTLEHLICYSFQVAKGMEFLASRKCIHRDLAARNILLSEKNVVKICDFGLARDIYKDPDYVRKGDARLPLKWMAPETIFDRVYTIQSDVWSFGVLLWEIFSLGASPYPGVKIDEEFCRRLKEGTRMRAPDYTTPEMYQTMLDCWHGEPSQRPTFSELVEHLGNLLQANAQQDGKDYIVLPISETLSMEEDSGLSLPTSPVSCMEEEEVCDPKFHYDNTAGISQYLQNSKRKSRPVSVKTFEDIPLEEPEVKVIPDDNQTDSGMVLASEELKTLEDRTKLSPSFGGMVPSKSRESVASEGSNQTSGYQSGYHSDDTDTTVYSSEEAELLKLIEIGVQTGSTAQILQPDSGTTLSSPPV
# AXL (phospho-AXL, Gas6-stimulated A-172 glioblastoma cells), sequence (P30530 26-894): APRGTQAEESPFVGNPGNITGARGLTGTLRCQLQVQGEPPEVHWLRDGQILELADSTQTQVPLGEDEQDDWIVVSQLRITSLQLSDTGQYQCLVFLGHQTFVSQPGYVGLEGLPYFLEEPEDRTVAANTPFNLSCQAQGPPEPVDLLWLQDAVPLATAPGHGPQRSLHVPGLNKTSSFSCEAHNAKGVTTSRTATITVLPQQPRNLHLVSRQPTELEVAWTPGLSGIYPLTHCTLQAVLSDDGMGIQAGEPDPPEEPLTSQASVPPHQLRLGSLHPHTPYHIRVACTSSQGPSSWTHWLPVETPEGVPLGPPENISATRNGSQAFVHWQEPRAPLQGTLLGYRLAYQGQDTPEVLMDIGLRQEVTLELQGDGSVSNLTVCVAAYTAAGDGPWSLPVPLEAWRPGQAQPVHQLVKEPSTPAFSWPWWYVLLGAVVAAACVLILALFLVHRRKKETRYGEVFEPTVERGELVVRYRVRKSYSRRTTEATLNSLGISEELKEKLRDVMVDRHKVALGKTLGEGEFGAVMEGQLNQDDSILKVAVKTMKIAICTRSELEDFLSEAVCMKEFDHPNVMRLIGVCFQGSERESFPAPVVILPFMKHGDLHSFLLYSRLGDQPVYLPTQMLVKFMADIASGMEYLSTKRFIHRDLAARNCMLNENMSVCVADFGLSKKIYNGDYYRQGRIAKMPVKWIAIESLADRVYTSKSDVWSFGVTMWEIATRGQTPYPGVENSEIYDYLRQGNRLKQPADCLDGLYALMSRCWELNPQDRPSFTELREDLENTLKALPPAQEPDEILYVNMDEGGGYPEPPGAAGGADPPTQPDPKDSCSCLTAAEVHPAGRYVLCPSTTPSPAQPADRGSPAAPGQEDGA
# Met (phospho-Met, HGF-stimulated PC-3 prostate cancer cells), sequence (P08581 25-1390): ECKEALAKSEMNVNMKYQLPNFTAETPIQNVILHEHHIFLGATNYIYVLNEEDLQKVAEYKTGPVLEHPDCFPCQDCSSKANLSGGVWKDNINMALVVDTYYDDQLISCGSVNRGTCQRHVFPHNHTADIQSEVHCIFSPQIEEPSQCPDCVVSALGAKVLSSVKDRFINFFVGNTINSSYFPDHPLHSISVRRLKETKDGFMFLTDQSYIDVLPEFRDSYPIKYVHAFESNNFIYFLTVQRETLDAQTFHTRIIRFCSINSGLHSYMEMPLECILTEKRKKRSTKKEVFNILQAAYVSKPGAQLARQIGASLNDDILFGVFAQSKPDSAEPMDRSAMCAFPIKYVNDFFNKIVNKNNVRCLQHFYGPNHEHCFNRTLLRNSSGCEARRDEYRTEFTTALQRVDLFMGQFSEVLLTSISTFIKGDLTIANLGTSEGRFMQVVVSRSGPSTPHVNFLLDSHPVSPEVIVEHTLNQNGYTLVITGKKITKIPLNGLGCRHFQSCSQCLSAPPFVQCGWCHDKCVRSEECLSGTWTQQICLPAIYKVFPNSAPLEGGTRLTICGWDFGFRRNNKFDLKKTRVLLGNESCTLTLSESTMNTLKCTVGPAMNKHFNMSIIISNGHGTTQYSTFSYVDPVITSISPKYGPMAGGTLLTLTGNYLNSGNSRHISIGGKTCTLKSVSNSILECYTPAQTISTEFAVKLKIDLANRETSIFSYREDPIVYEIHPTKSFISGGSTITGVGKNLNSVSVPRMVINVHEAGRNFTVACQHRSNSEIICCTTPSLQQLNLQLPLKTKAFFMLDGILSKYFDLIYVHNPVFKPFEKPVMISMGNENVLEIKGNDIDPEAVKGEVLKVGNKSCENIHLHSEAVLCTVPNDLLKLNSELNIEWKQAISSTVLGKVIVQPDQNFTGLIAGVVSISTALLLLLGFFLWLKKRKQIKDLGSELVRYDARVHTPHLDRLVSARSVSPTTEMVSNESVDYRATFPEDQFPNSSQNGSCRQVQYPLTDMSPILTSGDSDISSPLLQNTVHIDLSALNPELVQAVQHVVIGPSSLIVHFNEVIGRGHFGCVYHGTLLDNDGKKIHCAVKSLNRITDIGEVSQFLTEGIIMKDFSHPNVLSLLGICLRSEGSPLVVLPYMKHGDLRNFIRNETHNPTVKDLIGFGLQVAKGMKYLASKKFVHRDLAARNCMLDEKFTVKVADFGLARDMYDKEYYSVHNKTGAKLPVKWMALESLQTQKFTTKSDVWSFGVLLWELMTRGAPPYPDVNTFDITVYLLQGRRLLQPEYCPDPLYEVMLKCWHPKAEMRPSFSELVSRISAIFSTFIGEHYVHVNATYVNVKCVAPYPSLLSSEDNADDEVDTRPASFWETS
SMILES,IC50 [1] [nM],IC50 [2] [nM],IC50 [3] [nM],IC50 [4] [nM]
"COc1cc2nccc(Oc3ccc(NC(=O)c4n[nH]c(C)c(-c5ccc(F)cc5)c4=O)cc3)c2nc1OC [Compound 253, N-[4-[(6,7-Dimethoxy-1,5-naphthyridin-4-yl)oxy]phenyl]-5-(4-fluorophenyl)-6-methyl-4-oxo-1H-pyridazine-3-carboxamide]",< 100,< 100,< 100,< 100
"COc1cc2nccc(Oc3ccc(NC(=O)c4c(C)c(C)c(C)n(-c5ccc(F)cc5)c4=O)cc3)c2nc1OC [Compound 315, N-[4-[(6,7-Dimethoxy-1,5-naphthyridin-4-yl)oxy]phenyl]-1-(4-fluorophenyl)-4,5,6-trimethyl-2-oxopyridine-3-carboxamide]",< 100,< 100,< 100,< 100
"COCCOc1cc2nccc(Oc3ccc(NC(=O)c4c(C)cc(C)n(-c5ccc(F)cc5)c4=O)cc3F)c2nc1OC [Compound 485, N-[3-fluoro-4-[[6-methoxy-7-(2-methoxyethoxy)-1,5-naphthyridin-4-yl]oxy]phenyl]-1-(4-fluorophenyl)-4,6-dimethyl-2-oxopyridine-3-carboxamide]",< 100,< 100,< 100,< 100
"COc1cc2nccc(Oc3ccc(NC(=O)c4c(C)nc(C)c(-c5ccc(F)cc5C)c4O)cc3)c2nc1Cl [Compound 735, N-[4-[(6-chloro-7-methoxy-1,5-naphthyridin-4-yl)oxy]phenyl]-5-(4-fluoro-2-methylphenyl)-4-hydroxy-2,6-dimethylpyridine-3-carboxamide]",< 100,< 100,< 100,< 100
"COc1cc2nccc(Oc3ccc(NC(=O)c4n[nH]c(C)cc4=O)cc3F)c2nc1OC [Compound 536, N-[4-[(6,7-dimethoxy-1,5-naphthyridin-4-yl)oxy]-3-fluorophenyl]-6-methyl-4-oxo-1H-pyridazine-3-carboxamide]",> 300,> 300,> 300,> 300
"COc1cc2nccc(Oc3ccc(NC(=O)c4cn(CC(F)F)c(C)c(-c5ccc(F)cc5C)c4=O)cc3)c2nc1OC [Compound 722, 1-(2,2-difluoroethyl)-N-[4-[(6,7-dimethoxy-1,5-naphthyridin-4-yl)oxy]phenyl]-5-(4-fluoro-2-methylphenyl)-6-methyl-4-oxopyridine-3-carboxamide]",< 100,< 100,> 300,< 100
"COc1cc2nccc(Oc3ccc(NC(=O)c4cn(C5(C)COC5)cc(-c5ccc(F)cc5)c4=O)cc3F)c2cc1OC [Compound 55, N-[4-(6,7-Dimethoxyquinolin-4-yl)oxy-3-fluorophenyl]-5-(4-fluorophenyl)-1-(3-methyloxetan-3-yl)-4-oxopyridine-3-carboxamide]",< 100,< 100,> 300,< 100
"COCCOc1cnc2c(Oc3ccc(NC(=O)c4c(C)nc(C)c(-c5ccc(F)cc5C)c4O)cc3)ccnc2c1 [Compound 724, 5-(4-fluoro-2-methylphenyl)-4-hydroxy-N-[4-[[7-(2-methoxyethoxy)-1,5-naphthyridin-4-yl]oxy]phenyl]-2,6-dimethylpyridine-3-carboxamide]",< 100,< 100,< 100,< 100
"COc1cnc2c(Oc3ccc(NC(=O)c4cn(C(F)F)c(C)c(-c5ccc(F)cc5)c4=O)cc3)ccnc2c1 [Compound 669, 1-(difluoromethyl)-5-(4-fluorophenyl)-N-[4-[(7-methoxy-1,5-naphthyridin-4-yl)oxy]phenyl]-6-methyl-4-oxopyridine-3-carboxamide]",< 100,< 100,> 300,< 100
"COc1cc2nccc(Oc3cc(F)c(NC(=O)c4c(C)n(C)c(C)c(-c5ccc(F)cc5C)c4=O)cc3F)c2nc1OC [Compound 772, N-[4-[(6,7-dimethoxy-1,5-naphthyridin-4-yl)oxy]-2,5-difluorophenyl]-5-(4-fluoro-2-methylphenyl)-1,2,6-trimethyl-4-oxopyridine-3-carboxamide]",< 100,< 100,100 to 300,< 100
"COc1cnc2c(Oc3ccc(NC(=O)c4c(C)ccn(-c5ccc(F)cc5C)c4=O)cc3F)ccnc2c1 [Compound 334, N-[3-fluoro-4-[(7-methoxy-1,5-naphthyridin-4-yl)oxy]phenyl]-1-(4-fluoro-2-methylphenyl)-4-methyl-2-oxopyridine-3-carboxamide]",< 100,< 100,< 100,100 to 300
"COc1cc2nccc(Oc3ccc(NC(=O)c4cn(CC(F)F)c(C)c(-c5ccc(F)cc5C)c4=O)cc3F)c2nc1OC [Compound 730, 1-(2,2-difluoroethyl)-N-[4-[(6,7-dimethoxy-1,5-naphthyridin-4-yl)oxy]-3-fluorophenyl]-5-(4-fluoro-2-methylphenyl)-6-methyl-4-oxopyridine-3-carboxamide]",< 100,< 100,100 to 300,< 100
"COc1cnc2c(Oc3ccc(NC(=O)c4c(C)ncc(-c5ccc(F)c(F)c5)c4O)cc3F)ccnc2c1 [Compound 797, 5-(3,4-difluorophenyl)-N-[3-fluoro-4-[(7-methoxy-1,5-naphthyridin-4-yl)oxy]phenyl]-4-hydroxy-2-methylpyridine-3-carboxamide]",< 100,< 100,< 100,< 100
"COc1cc2nccc(Oc3ccc(NC(=O)c4c(C)nc(C)c(-c5ccc(F)cc5C)c4O)cc3F)c2nc1Cl [Compound 736, N-[4-[(6-chloro-7-methoxy-1,5-naphthyridin-4-yl)oxy]-3-fluorophenyl]-5-(4-fluoro-2-methylphenyl)-4-hydroxy-2,6-dimethylpyridine-3-carboxamide]",< 100,< 100,< 100,< 100
"COCCOc1cc2ncnc(Oc3ccc(NC(=O)c4ccc(C)n(-c5ccc(F)cc5)c4=O)cc3F)c2nc1OC [Compound 638, N-[3-fluoro-4-[6-methoxy-7-(2-methoxyethoxy)pyrido[3,2-d]pyrimidin-4-yl]oxyphenyl]-1-(4-fluorophenyl)-6-methyl-2-oxopyridine-3-carboxamide]",< 100,< 100,< 100,< 100
"COc1cc2c(Oc3ccc(NC(=O)c4ncc(C)n(-c5ccc(F)cc5)c4=O)cc3F)ccnc2cn1 [Compound 500, N-[3-fluoro-4-[(6-methoxy-1,7-naphthyridin-4-yl)oxy]phenyl]-4-(4-fluorophenyl)-5-methyl-3-oxopyrazine-2-carboxamide]",< 100,< 100,100 to 300,< 100
"COCc1nc(C)c(-c2ccc(F)cc2C)c(O)c1C(=O)Nc1ccc(Oc2ccnc3cc(C)c(OC)nc23)c(F)c1 [Compound 470, N-[3-fluoro-4-[(6-methoxy-7-methyl-1,5-naphthyridin-4-yl)oxy]phenyl]-5-(4-fluoro-2-methylphenyl)-4-hydroxy-2-(methoxymethyl)-6-methylpyridine-3-carboxamide]",< 100,< 100,< 100,< 100
"COc1cc2nccc(Oc3ccc(NC(=O)c4cc(C(C)=O)cn(-c5ccc(F)cc5)c4=O)cc3)c2nc1OC [Compound 359, 5-acetyl-N-[4-[(6,7-dimethoxy-1,5-naphthyridin-4-yl)oxy]phenyl]-1-(4-fluorophenyl)-2-oxopyridine-3-carboxamide]",< 100,< 100,> 300,< 100
"COc1cc2nccc(Oc3ccc(NC(=O)c4c(C)c(F)cn(-c5ccc(F)cc5)c4=O)cc3F)c2nc1OC [Compound 664, N-[4-[(6,7-dimethoxy-1,5-naphthyridin-4-yl)oxy]-3-fluorophenyl]-5-fluoro-1-(4-fluorophenyl)-4-methyl-2-oxopyridine-3-carboxamide]",< 100,< 100,< 100,< 100
"COc1cnc2c(Oc3ccc(NC(=O)c4c(CO)nc(C)c(-c5ccc(F)cc5)c4O)cc3F)ccnc2c1 [Compound 651, N-[3-fluoro-4-[(7-methoxy-1,5-naphthyridin-4-yl)oxy]phenyl]-5-(4-fluorophenyl)-4-hydroxy-2-(hydroxymethyl)-6-methylpyridine-3-carboxamide]",< 100,< 100,< 100,< 100
"Cn1cc(C(=O)Nc2ccc(Oc3ccnc4cccnc34)c(F)c2)c(=O)c(-c2ccc(F)cc2)c1CO [Compound 748, N-[3-fluoro-4-(1,5-naphthyridin-4-yloxy)phenyl]-5-(4-fluorophenyl)-6-(hydroxymethyl)-1-methyl-4-oxopyridine-3-carboxamide]",< 100,< 100,> 300,< 100
